Data: patent US8697867B2, “Cross-linked cyclic amine compounds and agents for pest control” (Nippon Soda Co., Ltd., priority 2005, dated 2014)

How the values were obtained:
Tetranychus urticae = test: Effectiveness against Tetranychus urticae (adulticidal rate on common bean leaf); format: in vivo; conditions: 125 ppm wettable powder dilution; adult females resistant to organophosphorus pesticides; 3 days after application; 25° C., 65% humidity
Panonychus citri = test: Effectiveness against Panonychus citri (mandarin orange leaf in petri dish); format: in vivo; conditions: 125 ppm emulsion dilution; adults removed 3 days after application; examined on the 11th day; 25° C., 65% humidity
Description: 10 adult female Panonychus citri were inoculated on the leaf of a mandarin orange, which was placed in a petri dish. After the inoculation, the drug solution, which was prepared by following the method of the emulsion shown in Example 2 of the drugs and by diluting with water to achieve the compound concentration of 125 ppm, was applied using a rotary spreading tower. The dish was placed in a temperature-controlled room where the temperature and humidity were set to 25° C. and 65% respectively, adults were removed 3 days after the application, and whether eggs laid during these 3 days could grow to become adults was examined on the 11th day.

## FC(F)(F)c1ccc(OC2CC3CCC(C2)N3c2ccc(C(F)(F)F)cn2)nc1 (stereo not drawn) [Compound 2-3, 3α-(5-trifluoromethyl-2-pyridyloxy)-8-(5-trifluoromethyl-pyridin-2-yl)-8-azabicyclo[3.2.1]octane]
Tetranychus urticae
  insecticidal rate (adulticidal rate): 100%

## CCCOc1cc(C(F)(F)F)ccc1OC1CC2CCC(C1)N2c1ccc(C(F)(F)F)c(F)c1 (stereo not drawn) [Compound 4-70, 3α-[2-n-propoxy-4-(trifluoromethyl)phenoxy]-8-[3-fluoro-4-(trifluoromethyl)phenyl]-8-azabicyclo[3.2.1]octane]
Tetranychus urticae
  insecticidal rate (adulticidal rate): 100%
Panonychus citri
  insecticidal rate (whether eggs laid during 3 days could grow to adults): 100%
